Two compounds from patent publication US10519323B2, “Antimicrobial coatings” (AGENCY FOR SCIENCE, TECHNOLOGY AND RESEARCH, priority 2015, dated 2019) can be followed below.

In brackets after ≈: the same amount, converted by molar mass.

Assay [1] deals with C. albicans. Nature of the assay: Minimal inhibitory concentration (MIC) of powders against C. albicans. In kind it is cell-based, Candida albicans. How it is done: (§1) The minimal inhibitory concentration (MIC) of ZIF-L powders synthesized from a solution with a 2-Me-Im:Zn ratio of 7:1 was tested against E. coli, S. aureus and C. albicans. The same test was conducted for ZIF-8 powders, 2-Me-Im alone and Zn(NO3)2.4H2O alone. The MIC values in mg/mL are tabulated below.

Assay [2] deals with S. aureus. Nature of the assay: Minimal inhibitory concentration (MIC) of powders against S. aureus. Format: cell-based, Staphylococcus aureus. The conditions noted are these: * = tested chemical formed precipitate in TSB medium. The procedure: as §1
The test system of assay [3] is E. coli. Nature of the assay: Minimal inhibitory concentration (MIC) of powders against E. coli. In kind it is cell-based, Escherichia coli. As to conditions: * = tested chemical formed precipitate in TSB medium. How it is done: as §1

One may read the MIC as the smallest concentration in the dilution series that meets the test's criterion for growth inhibition. With `Cc1ncc[nH]1` [2-Me-Im, 2-methylimidazole], the MIC in assay [1] (Candida albicans) amounted to 6.2 mg/mL (≈ 75.5 mM); in assay [2] (Staphylococcus aureus) it was 25 mg/mL (≈ 304 mM); in assay [3] (Escherichia coli) it was 12.5 mg/mL (≈ 152 mM).

As for `O.O.O.O.O=[N+]([O-])[O-].O=[N+]([O-])[O-].[Zn+2]` [Zn(NO3)2•4H2O, Zn(NO3)2.4H2O], the “MIC, C. albicans” value in assay [1] amounted to 0.8 mg/mL. Moreover, in assay [2], the “MIC, S. aureus” value is given as >50* mg/mL. In addition, the “MIC, E. coli” value in assay [3] was 3.1* mg/mL.
